Reference: patent US6121315A, “Oral compositions containing a zinc compound” (priority 1999, dated 2000)
Where “and” joins values, the source holds several entries; their conditions need not be identical. Identical values can stand only once. Like-named read-outs stand apart in the source and are kept apart here.

How the values were obtained:
[1] = system: Fusobacterium nucleatum (ATCC 10953); type: cell-based
Source text: The objective of this study was to evaluate the use of pure cultures or oral malodor-causing bacteria as the source of malodor instead of human subjects. Cultures of Fusobacterium nucleatum, Veillonella parvula and Prevotella sp. are well recognized producers of VSC's due to their ability to digest amino acids including cysteine and methionine. The most widely investigated of these is F. nucleatum. Therefore, this organism was selected for this in vitro test. Evaluating a finished oral care composition spiked with Fusobacterium was considered, however, the detector in the Halimeter was adversely affected by alcohols. […] Therefore, the following methodology was applied to screen the effectiveness of various zinc salt solutions in reducing VSC's: Fusobacterium nucleatum (ATCC #10953) was transferred twice from frozen stock cultures and maintained by daily transfers in […]' broth (Difco or BBL). […] The tube is a scaled down version of a Kontes #181000 adapter inlet with hose connectors which is coupled to a 18×100 mm glass tube fitted with a tapered ground fitting. After one minute the Halimeter was connected to a port on the reaction tube and allowed to sample the VSC's in the solution via the vacuum pump. The peak reading recorded by the Halimeter was taken as the VSC measurement. The level of inoculum selected was determined by ppb of VSC's generated in inoculated water alone. […] Three different zinc salt solutions, ZnCl2, ZnSO4, and ZnO, were evaluated. […] Water was used as the control. (Table 1) The heading D% refers to the difference between the measurement of VSCs in ppb using a pure water solution and the measurement of VSCs in ppb using varying concentrations of zinc salts. Each experiment was run in triplicate.

[2] = Adherence of zinc to simulated dental plaque on steel wires, fluorimetric with 8-hydroxyquinoline
Source text: To determine how readily zinc adheres to dental plaque, the adherence of zinc to simulated plaque grown on steel wires was fluorimetrically measured. Increasing concentrations of zinc solutions were used in the test oral compositions.
After the simulated plaque is developed on the wires, it is then immersed in the oral composition to be tested, which is followed by a rinse. Thereafter, the plaque coated wires are immersed in a 0.01% solution of 8-hydroxyquinoline prepared by dissolving the 8-hydroxyquinoline in 100% ethanol. Twenty (20) ml of this solution were then brought q.s. up to the correct concentration.

[3] = Overnight malodor study: morning mouth air VSC (H2 S, CH3 SH) by gas chromatography; type: in vivo, human
Experimental: Subjects participating in this study maintained their normal nightly oral hygiene procedure for the duration of the study. In addition, all participants were asked to refrain from eating odoriferous foods at least 24 hours prior to their appointment for measurement of VSC's.
Subjects reported directly to the laboratory each morning for measurement of mouth air VSC levels. This measurement was the baseline (pretreatment) level of VSC. Selection for the study was based on morning levels of H2 S above 30 parts per billion (ppb) and CH3 SH above 20 ppb. Subjects fulfilling this criteria received a treatment to use that evening. Immediately before retiring to bed, the subjects rinsed vigorously for 30 seconds using the assigned treatment. The following morning the subject returned to the lab for analysis of mouth air VSC. This measurement was the post-treatment value. These treatments were assigned in a random, crossover design experiment.
Levels of VSC in subject's mouth air were determined using a gas chromatography system equipped with a flame photometric detector. […] Analysis of variance tested for significant treatment differences.
Differences between treatment were tested by analysis of variance using post minus pretreatment levels of mouth air VSCs.

[4] = cited from earlier work
[5] = 1 hour after using 31 or 18 mM; cited from earlier work
[6] = 0.25% zinc chloride, significant reduction from Baseline
[7] = individual subjects 1-13 in table order, morning after 20 ml of 0.25% zinc chloride, 30 second rinse at bedtime
[8] = individual subjects 1-13 in table order, pretreatment, zinc chloride arm
[9] = mean of 13 subjects, pretreatment, zinc chloride arm

| SMILES | % D, difference from water in VSC ([1]; 0.01%, first run) | % D, difference from water in VSC ([1]; 0.01%, second run) | % D, difference from water in VSC ([1]; 0.01%, third run) | % D, difference from water in VSC ([1]; 0.05%, first run) | % D, difference from water in VSC ([1]; 0.05%, second run) | % D, difference from water in VSC ([1]; 0.05%, third run) | % D, difference from water in VSC ([1]; 0.1%, first run) | % D, difference from water in VSC ([1]; 0.1%, second run) | % D, difference from water in VSC ([1]; 0.1%, third run) | % D, difference from water in VSC ([1]; 0.2%, first run) | % D, difference from water in VSC ([1]; 0.2%, second run) | % D, difference from water in VSC ([1]; 0.2%, third run) | % D, difference from water in VSC ([1]; 0.4%, first run) | % D, difference from water in VSC ([1]; 0.4%, second run) | % D, difference from water in VSC ([1]; 0.4%, third run) | further results |
| --- | --- | --- | --- | --- | --- | --- | --- | --- | --- | --- | --- | --- | --- | --- | --- | --- |
| [Cl-].[Cl-].[Zn+2] [ZnCl2, zinc chloride] | -47.4% | -58.3% | -37.0% | -53.0% | -57.5% | -40.0% | -53.8% | -54.6% | -43.1% | -59.8% | -60.4% | -47.9% | -63.2% | -58.9% | -47.4% | amount of fluorescence in dental plaque vs concentration ([2]; ZnCl2 0.001%, 0.010%, 0.025%, 0.050% and 0.100%): the amount of fluorescence increased with increasing zinc concentration; lowest concentration at which fluorescence from zinc was detectable in dental plaque ([2]; base oral composition identical to Example 2, excitation 360 nm, emission 530 nm or 590 nm): 0.001 % (w/v); CH3 SH, Probability (p), t-test for differences from baseline [3, 6]: .0209; H2 S, Probability (p), t-test for differences from baseline [3, 6]: .0074; CH3 SH levels, Post [3, 7]: 50 ppb and 20 ppb and 63 ppb and 176 ppb and 41 ppb and 35 ppb and 29 ppb and 25 ppb and 133 ppb and 47 ppb and 16 ppb; H2 S levels, Post [3, 7]: 41 ppb and 22 ppb and 162 ppb and 268 ppb and 129 ppb and 106 ppb and 35 ppb and 318 ppb and 32 ppb and 94 ppb and 17 ppb and 97 ppb; CH3 SH levels, Baseline [3, 8]: 173 ppb and 46 ppb and 358 ppb and 115 ppb and 249 ppb and 61 ppb and 51 ppb and 99 ppb and 170 ppb and 217 ppb and 44 ppb and 59 ppb and 34 ppb; H2 S levels, Baseline [3, 8]: 344 ppb and 53 ppb and 522 ppb and 204 ppb and 644 ppb and 310 ppb and 91 ppb and 509 ppb and 191 ppb and 175 ppb and 81 ppb and 110 ppb and 170 ppb; CH3 SH levels, Post, mean (x) ([3]; mean of 13 subjects, morning after 20 ml of 0.25% zinc chloride, baseline mean 129, water 76 to 65): 57 ppb; H2 S levels, Post, mean (x) ([3]; mean of 13 subjects, morning after 20 ml of 0.25% zinc chloride, baseline mean 262, water 164 to 113): 114 ppb; CH3 SH levels, Baseline, mean (x) [3, 9]: 129 ppb; H2 S levels, Baseline, mean (x) [3, 9]: 262 ppb; development of VSC's overnight in vivo ([3]; summary statement in words): prevent or inhibit |
| CC(C)[C@@H]1CC[C@@H](C)C[C@H]1OC(=O)CCC(=O)O [monomenthyl succinate] |  |  |  |  |  |  |  |  |  |  |  |  |  |  |  | solubility in water [4]: sparingly soluble; solubility in oil ([4]; relative to water): more soluble |
| [O]=[Zn] [ZnO, zinc oxide] | -53.7% | -54.9% | -40.0% | -48.7% | -51.8% | -37.5% | -58.2% | -57.6% | -42.1% | -59.4% | -63.5% | -47.9% | -60.2% | -70.5% | -54.1% |  |
| O=S(=O)([O-])c1ccc(O)cc1.O=S(=O)([O-])c1ccc(O)cc1.[Zn+2] [zinc phenolsuphonate] |  |  |  |  |  |  |  |  |  |  |  |  |  |  |  | oral zinc concentration [5]: markedly increased |
| [Cl-].[Cl-].[Zn+2] [zinc] |  |  |  |  |  |  |  |  |  |  |  |  |  |  |  | levels of CH3 SH and H2 S compared to baseline levels ([3]; overnight, morning breath, result in words): significantly reduced |
| CC1CCC(C(C)C)C(O)C1 (stereo not drawn) [Menthol, hexahydrothymol, reference compound] |  |  |  |  |  |  |  |  |  |  |  |  |  |  |  | solubility in alcohol [4]: highly soluble |
| O=S(=O)([O-])[O-].[Zn+2] [ZnSO4, zinc sulfate] | -52.0% | -67.7% | -38.7% | -53.6% | -51.3% | -42.5% | -54.7% | -58.6% | -42.4% | -58.1% | -67.4% | -48.1% | -65.0% | -58.2% | -51.0% |  |
